# Assay results from PubChem BioAssay (NCI).
#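 The compound was tested at five concentrations on cells cultured in 96-well plates, with a 48-hour exposure period. Here, GI50 denotes the concentration required for 50% inhibition of growth. TGI marks complete inhibition of growth.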
# Key:
# Assay in all cases: DTP human tumour cell line panel, 48 h
# IGROV1 ovarian = tested on: IGROV1 ovarian
# NCI/ADR-RES ovarian = tested on: NCI/ADR-RES ovarian
# SF-268 CNS = tested on: SF-268 CNS
# U251 CNS = tested on: U251 CNS
# MDA-MB-231 breast = tested on: MDA-MB-231 breast
# 786-0 renal = tested on: 786-0 renal
# TK-10 renal = tested on: TK-10 renal
# BT-549 breast = tested on: BT-549 breast
# MALME-3M melanoma = tested on: MALME-3M melanoma
# MDA-MB-435 = tested on: MDA-MB-435
SMILES,GI50 (IGROV1 ovarian),TGI (IGROV1 ovarian),GI50 (NCI/ADR-RES ovarian),TGI (NCI/ADR-RES ovarian),GI50 (SF-268 CNS),TGI (SF-268 CNS),GI50 (U251 CNS),TGI (U251 CNS),GI50 (MDA-MB-231 breast),TGI (MDA-MB-231 breast),GI50 (786-0 renal),TGI (786-0 renal),GI50 (TK-10 renal),TGI (TK-10 renal),GI50 (BT-549 breast),TGI (BT-549 breast),GI50 (MALME-3M melanoma),TGI (MALME-3M melanoma),GI50 (MDA-MB-435),TGI (MDA-MB-435)
CCCn1cnc2c(SCc3ccccc3Cl)nc(N)nc21,13.3 µM,> 100 µM,14.8 µM,64.1 µM,12.1 µM,92.7 µM,5.62 µM,37.8 µM,11.8 µM,29.3 µM,14.9 µM,31.6 µM,14.5 µM,> 100 µM,13.7 µM,44 µM,21.4 µM,58.7 µM,13.6 µM,37 µM
O=C1CCCCN1CCCCC#Cc1ccccc1C#Cc1ccc([N+](=O)[O-])cc1,8.21 µM,37.5 µM,3.35 µM,12.3 µM,11.7 µM,27.3 µM,3.79 µM,14.4 µM,12.8 µM,51.4 µM,8.41 µM,79 µM,7.72 µM,30.5 µM,16.6 µM,44.6 µM,37.2 µM,> 100 µM,1.68 µM,4.83 µM
COc1ccc(/C(COc2c(-c3ccccc3)oc3ccccc3c2=O)=N\O)cc1,22.9 µM,> 50 µM,11.4 µM,39.6 µM,13.4 µM,41 µM,18.9 µM,> 50 µM,18.3 µM,> 50 µM,40.6 µM,> 50 µM,10.2 µM,26.2 µM,12.3 µM,25.6 µM,,,,
O=C(O)CNS(=O)(=O)c1ccc(NCc2ccccc2)cc1,,> 100 µM,,,,> 100 µM,,> 100 µM,,,,> 100 µM,,> 100 µM,,,,> 100 µM,,
CCOC(=O)[C]1([Bi]([CH3])[CH3])N=NC(C(=O)OC)=C1C(=O)OC (stereo unspecified),24.6 µM,51.9 µM,,,17.2 µM,31.7 µM,> 100 µM,> 100 µM,,,18.8 µM,33.2 µM,17.3 µM,32.1 µM,,,17 µM,31.8 µM,,
O=C(/N=N/C(=O)OCc1ccccc1)OCc1ccccc1,,> 100 µM,,,,> 100 µM,,> 100 µM,,,,> 100 µM,,> 100 µM,,,,> 100 µM,,
Brc1cccc(C=NC23CC4CC(CC(C4)C2)C3)c1,,> 100 µM,,,,> 100 µM,,> 100 µM,,,,> 100 µM,,> 100 µM,,,,> 100 µM,,
Cc1ccc2c(c1)[n+]([O-])c(N)n[n+]2[O-],,> 100 µM,,> 100 µM,,> 100 µM,,> 100 µM,,> 100 µM,,> 100 µM,,> 100 µM,,> 100 µM,,,,> 100 µM
NC(CCC(=O)NC(CSSCCCCS(=O)O)C(=O)NCC(=O)O)C(=O)O (stereo unspecified),,> 100 µM,,,,> 100 µM,,> 100 µM,,,,> 100 µM,,> 100 µM,,,,> 100 µM,,
